Results reported in patent publication US12077555B2, “STAT degraders and uses thereof” (Kymera Therapeutics, Inc., priority 2019, dated 2024).

How the values were obtained:
SU-DHL-1 tumor cells = experiment: Xenograph tumor study, SU-DHL-1; format: in vivo, NOD SCID mice; conditions: SUDHL-1 xenograph, 2.5-30 mg/kg, 2 days on/5 days off
Experimental: Animals: 50 6-8 week old female NOD SCID mice weighing 18 to 20 grams. 25 mice were used in each study.
Method for Tumor Inoculation: Each mouse was inoculated subcutaneously with SU-DHL-1 tumor cells (1×107+Matrigel) or SUP-M2 tumor cells (5×106+Matrigel) in 0.1 ml of RPMI1640 medium supplemented with 10% FBS, 100 U/ml penicillin and […] streptomycin for tumor development. Mice were then assigned to groups such that the mean tumor volume was the same for each treatment group and time point. […] Vehicle was 25% HP-β-CD in water adjusted to pH 7.4.
Measurement Parameters: Study animals were monitored not only for tumor growth but also behavior such as mobility, food and water consumption (by cage side checking only), body weight (BW), eye/hair matting and any other abnormal effect. Any mortality and/or abnormal clinical signs was recorded. Sponsor was notified immediately if abnormal clinical signs, or if tolerability issues were observed. Body weights of all animals were measured and recorded twice per week. The measurement of tumor size was conducted twice weekly with a caliper and recorded. The tumor volume (mm3) was estimated using the formula: TV=a×b2/2, where “a” and “b” are long and short diameters of a tumor, respectively.

STAT3 [1] = target: T1, STAT3 (Homo sapiens, UniProt P40763); experiment: STAT3 HiBiT degradation assay in transfected A549 cells; format: cell-based; set-up: expressed in transfected cells; host or cells: A549; conditions: A549, 24 h; read-out: STAT3 HiBiT A549 degradation 24 h: Average external-Abs DC50
T1 sequence (P40763 whole entry): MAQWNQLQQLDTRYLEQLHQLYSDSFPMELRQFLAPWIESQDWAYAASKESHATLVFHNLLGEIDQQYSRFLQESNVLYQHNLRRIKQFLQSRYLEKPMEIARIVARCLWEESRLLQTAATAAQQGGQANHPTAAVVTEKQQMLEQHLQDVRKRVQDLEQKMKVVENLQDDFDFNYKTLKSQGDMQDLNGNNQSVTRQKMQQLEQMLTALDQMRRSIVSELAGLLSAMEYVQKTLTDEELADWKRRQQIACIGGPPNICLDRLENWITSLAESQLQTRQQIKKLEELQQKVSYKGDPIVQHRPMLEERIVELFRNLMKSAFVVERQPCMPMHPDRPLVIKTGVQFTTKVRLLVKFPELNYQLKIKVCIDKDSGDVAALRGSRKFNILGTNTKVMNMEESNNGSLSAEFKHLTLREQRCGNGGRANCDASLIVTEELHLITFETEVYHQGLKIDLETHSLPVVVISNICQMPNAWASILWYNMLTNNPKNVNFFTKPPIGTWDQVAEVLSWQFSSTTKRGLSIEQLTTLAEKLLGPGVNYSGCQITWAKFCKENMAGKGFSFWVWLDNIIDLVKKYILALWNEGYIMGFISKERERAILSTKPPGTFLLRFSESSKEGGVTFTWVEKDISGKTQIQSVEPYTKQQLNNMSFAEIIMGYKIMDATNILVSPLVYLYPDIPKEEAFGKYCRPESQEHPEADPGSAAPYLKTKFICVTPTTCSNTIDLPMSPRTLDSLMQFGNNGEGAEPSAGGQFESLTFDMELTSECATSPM
How it was run: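 Transfected A549 cells (~2000/well) plated 24 h, then treated 24 h at 37 °C, 5% CO2 with a 3-fold, 10-point compound dilution. HiBiT lytic luminescence read after 10 min at room temperature; remaining STAT3 normalized to negative and positive controls, four-parameter fit. DC50 binned A <0.01, B 0.01–0.1, C 0.1–1.0, D >1.0 µM.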

ternary complex = experiment: AlphaLISA assay of ternary complex formation (FIG. 2A); format: binding
STAT3 [2] = target: T1, STAT3; experiment: Fluorescence polarization assay, STAT3 binding; conditions: FIG. 1
E3 ligase = experiment: Fluorescence polarization assay, E3 ligase binding; conditions: FIG. 1
[3] = system: STAT3-degrader-E3 ligase ternary complex; experiment: AlphaLISA assays, ternary complex formation and STAT3 ubiquitination; format: biochemical; conditions: FIG. 2
STAT3 [4] = target: T1, STAT3; experiment: STAT3 ubiquitination in A549 lysates (FIG. 2B); format: cell-based; set-up: expressed in transfected cells; host or cells: A549
STAT3 [5] = target: T1, STAT3; experiment: Quantitation of STAT3 degradation in A549 cells by Western blot; format: cell-based; set-up: expressed in transfected cells; host or cells: A549; conditions: read-out: A549 DC50, 24 hours, tested up to 30 μM or 10 μM
How it was run: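 A549 cells treated 24 h at 37° C with compound at 30, 10, 3, 1, 0.3 μM or DMSO; RIPA lysates analysed by SDS-PAGE/Western blot for total STAT3, β-actin as loading control, LI-COR fluorescence read-out. DC50 derived by sigmoidal fit of dose-dependent degradation.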

| SMILES | tumor volume, 5 days (SU-DHL-1 tumor cells; IP) | tumor volume, 10 days (SU-DHL-1 tumor cells; IP) | tumor volume, 15 days (SU-DHL-1 tumor cells; IP) | tumor volume, 20 days (SU-DHL-1 tumor cells; IP) | DC50 (STAT3 [1]) [nM] | tumor volume, 5 days (SU-DHL-1 tumor cells; IV) | tumor volume, 10 days (SU-DHL-1 tumor cells; IV) | tumor volume, 15 days (SU-DHL-1 tumor cells; IV) | tumor volume, 20 days (SU-DHL-1 tumor cells; IV) | further results |
| --- | --- | --- | --- | --- | --- | --- | --- | --- | --- | --- |
| Cn1c(=O)n(C2CCC(=O)NC2=O)c2ccc(C[C@H]3CC[C@@H](CC(=O)N4CC[C@H]5CC[C@@H](C(=O)N[C@@H](CCC(N)=O)C(=O)NCc6ccc(S(C)(=O)=O)cc6)N5C(=O)[C@@H](NC(=O)c5cc6cc(C(=O)P(=O)(O)O)ccc6[nH]5)C4)CC3)cc21 (stereo partly drawn) [Compound I-195, 2-[[(5S,8S,10aR)-8-[[(1S)-3-carbamoyl-1-[[(4-methanesulfonylphenyl)methyl]carbamoyl]propyl]carbamoyl]-6-oxo-3-[2-[(1S,4S)-4-[[1-(2,6-dioxopiperidin-3-yl)-3-methyl-2-oxo-1,3-benzodiazol-5-yl]methyl]cyclohexyl]acetyl]-octahydropyrrolo[1,2-a][1,5]diazocin-5-yl]carbamoyl]-1H-indole-5-carbonylphosphonic acid] | A (A<500 mm^3) | A (A<500 mm^3) | A (A<500 mm^3) | A (A<500 mm^3) | 10 to 100 |  |  |  |  |  |
| Cc1ncsc1-c1ccc([C@H](C)NC(=O)[C@@H]2C[C@@H](O)CN2C(=O)[C@@H](NC(=O)CCCc2cccc(OC[C@H](CCC(N)=O)NC(=O)[C@@H]3Cc4cccc5c4N3C(=O)[C@@H](NC(=O)c3cc4cc(C(=O)P(=O)(O)O)ccc4[nH]3)CC5)c2F)C(C)(C)C)cc1 [Compound I-261, 2-[[(2S,11S)-2-[[(2S)-4-carbamoyl-1-[2-fluoro-3-(3-[[(2S)-1-[(2S,4R)-4-hydroxy-2-[[(1S)-1-[4-(4-methyl-1,3-thiazol-5-yl)phenyl]ethyl]carbamoyl]pyrrolidin-1-yl]-3,3-dimethyl-1-oxobutan-2-yl]carbamoyl]propyl)phenoxy]butan-2-yl]carbamoyl]-12-oxo-1-azatricyclo[6.4.1.0^[4,13]]trideca-4(13),5,7-trien-11-yl]carbamoyl]-1H-indole-5-carbonylphosphonic acid] | A (A<500 mm^3) | A (A<500 mm^3) | A (A<500 mm^3) | A (A<500 mm^3) | < 10 |  |  |  |  |  |
| CC(=O)N1CC[C@H]2CC[C@@H](C(=O)N[C@@H](CCC(N)=O)COc3cccc(CCCCC(=O)N[C@H](C(=O)N4C[C@H](O)C[C@H]4C(=O)N[C@@H](C)c4ccc(-c5scnc5C)cc4)C(C)(C)C)c3Cl)N2C(=O)[C@@H](NC(=O)c2cc3cc(C(=O)P(=O)(O)O)ccc3[nH]2)C1 [Compound I-233, diammonium 2-[[(5S,8S,10aR)-3-acetyl-8-[[(2S)-4-carbamoyl-1-[2-chloro-3-(4-[[(2S)-1-[(2S,4R)-4-hydroxy-2-[[(1S)-1-[4-(4-methyl-1,3-thiazol-5-yl)phenyl]ethyl]carbamoyl]pyrrolidin-1-yl]-3,3-dimethyl-1-oxobutan-2-yl]carbamoyl]butyl)phenoxy]butan-2-yl]carbamoyl]-6-oxo-octahydropyrrolo[l,2-a][1,5]diazocin-5-yl]carbamoyl]-1H-indole-5-carbonylphosphonate] |  |  |  |  | < 10 | A (A<500 mm^3) | A (A<500 mm^3) | A (A<500 mm^3) | A (A<500 mm^3) |  |
| CC(=O)N1CC[C@H]2CC[C@@H](C(=O)N[C@@H](CCC(N)=O)COc3cc(C)cc(CCCCCC(=O)N[C@H](C(=O)N4C[C@H](O)C[C@H]4C(=O)N[C@@H](C)c4ccc(-c5scnc5C)cc4)C(C)(C)C)c3F)N2C(=O)[C@@H](NC(=O)c2cc3cc(C(=O)P(=O)(O)O)ccc3[nH]2)C1 [Compound I-262, 2-[[(5S,8S,10aR)-3-acetyl-8-[[(2S)-4-carbamoyl-1-[2-fluoro-3-(5-[[(2S)-1-[(2S,4R)-4-hydroxy-2-[[(1S)-1-[4-(4-methyl-1,3-thiazol-5-yl)phenyl]ethyl]carbamoyl]pyrrolidin-1-yl]-3,3-dimethyl-1-oxobutan-2-yl]carbamoyl]pentyl)-5-methylphenoxy]butan-2-yl]carbamoyl]-6-oxo-octahydropyrrolo[1,2-a][1,5]diazocin-5-yl]carbamoyl]-1H-indole-5-carbonylphosphonic acid] |  |  |  |  | < 10 | A (A<500 mm^3) | A (A<500 mm^3) | A (A<500 mm^3) | A (A<500 mm^3) |  |
| C/C(=C\C(=O)N[C@H]1CCc2cccc3c2N(C1=O)[C@H](C(=O)N[C@@H](CCC(N)=O)[C@@H](C)OCc1ccc(CCCCC(=O)N[C@H](C(=O)N2C[C@H](O)C[C@H]2C(=O)NCc2ccc(-c4scnc4C)cc2)C(C)(C)C)cc1)C3)c1ccc(C(F)(F)P(=O)(O)O)cc1 [Compound I-1, [4-[(1E)-1-[[(2S,11S)-2-[[(3S,4R)-1-carbamoyl-4-[[4-(4-[[(2S)-1-[(2S,4R)-4-hydroxy-2-([[4-(4-methyl-1,3-thiazol-5-yl)phenyl]methyl]carbamoyl)pyrrolidin-1-yl]-3,3-dimethyl-1-oxobutan-2-yl]carbamoyl]butyl)phenyl]methoxy]pentan-3-yl]carbamoyl]-12-oxo-1-azatricyclo[6.4.1.0^[4,13]]trideca-4(13),5,7-trien-11-yl]carbamoyl]prop-1-en-2-yl]phenyl]difluoromethylphosphonic acid] |  |  |  |  |  |  |  |  |  | ternary complex formation (ternary complex): efficient ternary complex formation; binding to STAT3 (STAT3 [2]): binds; binding to E3 ligase (E3 ligase): binds; STAT3 ubiquitination [3]: promotes; formation of the STAT3-degrader-E3 ligase ternary complex [3]: promotes the formation of the STAT3-degrader-E3 ligase ternary complex; STAT3 ubiquitination (STAT3 [4]): STAT3 ubiquitination; DC50 (STAT3 [5]): < 30000 nM |
| CC(=O)N1CC[C@H]2CC[C@@H](C(=O)N[C@@H](CCC(N)=O)COc3cccc(CCCC(=O)N[C@H](C(=O)N4C[C@H](O)C[C@H]4C(=O)N[C@@H](C)c4ccc(-c5scnc5C)cc4)C(C)(C)C)c3Cl)N2C(=O)[C@@H](NC(=O)c2cc3cc(C(=O)P(=O)(O)O)ccc3[nH]2)C1 [Compound I-241, diammonium 2-[[(5S,8S,10aR)-3-acetyl-8-[[(2S)-4-carbamoyl-1-[2-chloro-3-(3-[[(2S)-1-[(2S,4R)-4-hydroxy-2-[[(1S)-1-[4-(4-methyl-1,3-thiazol-5-yl)phenyl]ethyl]carbamoyl]pyrrolidin-1-yl]-3,3-dimethyl-1-oxobutan-2-yl]carbamoyl]propyl)henoxy]butan-2-yl]carbamoyl]-6-oxo-octahydropyrrolo[1,2-a][1,5]diazocin-5-yl]carbamoyl]-1H-indole-5-carbonylphosphonate] |  |  |  |  | < 10 | A (A<500 mm^3) | A (A<500 mm^3) | A (A<500 mm^3) | A (A<500 mm^3) |  |
